Source: CN116559458A, “基于protac蛋白靶向降解技术的活性天然产物靶点鉴定方法及protac化合物” (Shenyang Pharmaceutical University, priority 2022, dated 2023)

Columns and labels:
[1] = tested on: LPS-stimulated mouse macrophage RAW264.7 cells (小鼠巨噬细胞RAW264.7细胞); settings: LPS-stimulated RAW264.7; earlier study of the applicant's group; read-out: IC50 (inhibition of NO production); cited from earlier work
[2] = tested on: LPS-stimulated mouse macrophage RAW264.7 cells, NO production (小鼠巨噬细胞RAW264.7细胞, 一氧化氮(NO)生成); assay: Griess assay of NO production in LPS-stimulated RAW264.7 cells; assay type: cell-based
MAFF protein (MAFF蛋白) [3] = target: MAFF protein (MAFF蛋白) (Homo sapiens, UniProt Q9ULX9); assay: Microscale thermophoresis (MST); assay type: binding
MAFF protein (MAFF蛋白) [4] = target: T1, MAFF protein (MAFF蛋白) (Mus musculus, UniProt O54791); assay: CETSA in RAW264.7 cells; assay type: cell-based; settings: 40 μM, 4 h; 64-72 ℃
T1 construct: endogenous in cells; host or cells: RAW264.7

MAFF = target: T2, MAFF (Mus musculus, UniProt O54791); assay: DARTS in RAW264.7 lysate; assay type: binding; settings: 10, 20 and 40 μM; Pronase 1:1000, 37 ℃ 15 min
T2 construct: endogenous in cells; host or cells: RAW264.7
T2 sequence (O54791 whole entry): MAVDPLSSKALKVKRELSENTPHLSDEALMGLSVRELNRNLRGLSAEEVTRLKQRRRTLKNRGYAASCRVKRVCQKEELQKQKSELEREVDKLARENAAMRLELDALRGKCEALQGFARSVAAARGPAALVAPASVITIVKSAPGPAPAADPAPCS

T1 sequence (O54791 whole entry): as above
Sequence of MAFF protein (MAFF蛋白) (Homo sapiens, UniProt Q9ULX9) (Q9ULX9 whole entry, species assumed): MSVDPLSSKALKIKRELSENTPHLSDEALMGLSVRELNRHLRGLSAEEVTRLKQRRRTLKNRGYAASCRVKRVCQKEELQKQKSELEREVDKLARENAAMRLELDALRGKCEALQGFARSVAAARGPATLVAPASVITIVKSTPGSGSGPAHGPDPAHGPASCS

SMILES	IC50 [1] [µM]	IC50 ([2]; Mus musculus, RAW264.7, read-out: IC50 (inhibition of NO production)) [µM]	inhibition of LPS-stimulated NO production (in words) ([2]; RAW264.7, compound 3 h, then LPS 1 μg/mL 24 h)	Kd (MAFF protein (MAFF蛋白) [3]) [µM]	thermal stability of MAFF protein (MAFF protein (MAFF蛋白) [4])	degradation of MAFF by Pronase (MAFF)
C=C1CC[C@H]2[C@@H](/C=C(\C)C(=O)[C@@]3(OC(C)=O)C[C@H](C)[C@H](OC(=O)/C=C/c4ccccc4)[C@@H]3[C@H]1O)C2(C)C [2S,3S,4S,5R,9S,11R,15R)-15-acetoxy-3-cinnamoyloxy-5-hydroxy-14-oxolathyra-6(17),12E-diene]	3 ± 1.1	–	–	–	–	–
C=C1CC[C@H]2[C@@H](/C=C(\C)C(=O)[C@@]3(O)C[C@H](C)[C@H](O)[C@@H]3[C@H]1O)C2(C)C [Lathyrol]	–	11.1 ± 1.14	良好的抑制作用	20.9 ± 2.34	提高了MAFF蛋白的热稳定性	降解程度显著降低
